Test results taken from patent US11203608B2, “Platinum-containing compounds, and related compositions and uses thereof” (Massachusetts Institute of Technology, priority 2019, dated 2021).

Key:
Format in all cases: cell-based
[1] = test system: APC−/−; TdTomato+ (A-tdt) organoids; test: Viability of A-tdt murine colorectal cancer organoids, resazurin assay; details: 72-h exposure (table title); read-out: IC50 against A-tdt organoids
Source text: (§1) Colonic crypts were isolated and colon organoids were generated from the following mouse genotypes on a C57Bl/6 background: 1. Rosa-LSL-TdTomato (hereafter LSL-tdt), 2. P53^f1/f1; LSL-tdt, and 3. LSL-KRAS^G12D/WT; P53^fl/fl; LSL-tdt mice. Subsequently, the pSECC-APC plasmid (carrying Cre, Cas9, and sgAPC) was transfected into each of the above three genotypes of colon organoids. This transfection strategy generated, in a single step, the following colorectal cancer organoids, including 1. APC^−/−; TdTomato^+ (A-tdt), 2. APC^−/−; P53^−/−; TdTomato^+ (AP-tdt), and 3. APC^−/−; KRAS^G12D/WT; P53^−/−; TdTomato^+ (AKP-tdt). Organoids of the desired genotype were selected for by Wnt/Rspo withdrawal for APC^−/−, Nutlin-3 addition for P53^−/−, and EGF withdrawal for KRAS^G12D.
(§2) Twenty four hours after seeding the organoids, a media change was performed and dose responses of oxaliplatin, doxorubicin and doxaliplatin were added. […] Organoids were cultured in Advanced DMEM/F12 supplemented with 2 mM GlutaMAX, 1% Penicillin-Streptomycin, 2% B27, and Y-27632 (10 μM).

[2] = test system: APC−/−; P53−/−; TdTomato+ (AP-tdt) organoids; test: Viability of AP-tdt murine colorectal cancer organoids, resazurin assay; details: 72-h exposure (table title); read-out: IC50 against AP-tdt organoids
Source text: as §1, §2

[3] = test system: APC−/−; KRASG12D/WT; P53−/−; MSH2−/− (AKP-MSH2) organoids; test: Viability of AKP-MSH2 murine colorectal cancer organoids
Source text: To generate 4. APC^−/−; KRAS^G12D/WT; P53^−/−; (AKP) and 5. APC^−/−; KRAS^G12D/WT; P53^−/−; MSH2^−/− (AKP-MSH2) colon cancer organoids, colonic crypts were isolated and colon organoids were generated from the following mouse genotypes on a C57Bl/6 background: 4. LSL-KRAS^G12D/WT; P53^fl/fl mice and 5. LSL-KRAS^G12D; P53^fl/fl; MSH2^fl/fl mice. Subsequently, the pSECC-APC plasmid (carrying Cre, Cas9, and sgAPC) was transfected into each of the above two genotypes of colon organoids. Following pSECC-APC transfection, Wnt/Rspo withdrawal was performed and surviving (APC^−/−) single organoids were cloned and PCR genotyped for Cre mediated deletion of p53 and/or MSH2, and for Cre mediated activation of oncogenic KRAS^G12D.
as §2

SMILES: COc1cccc2c1C(=O)c1c(O)c3c(c(O)c1C2=O)CC(O)(C(=O)CO)CC3OC1CC(N)C(N)C(C)O1.O=C1[O][Pt][O]C1=O (stereo not shown) [DoxPt, Doxaliplatin]
- IC50 [1]: 460 nM
- IC50 [2]: 410 nM
- IC50 ([3]; 72-h exposure, read-out: IC50 against AKP-MSH2 organoids): 78 nM
- Potency relative to oxaliplatin (by IC50) ([3]; AKP-MSH2 organoids): 28 fold
